The record followed here is patent US8278072B1, “Method for synthesis of sialylated products using reversible sialylation” (Health Research, Inc., priority 2007, dated 2012).

Common to all, as to assay type: biochemical
Assay [1] concerns the target T1, ST3Gal-II (Rattus norvegicus, UniProt Q11205).
T1 construct: purchased Calbiochem
T1 sequence (Q11205 1-350): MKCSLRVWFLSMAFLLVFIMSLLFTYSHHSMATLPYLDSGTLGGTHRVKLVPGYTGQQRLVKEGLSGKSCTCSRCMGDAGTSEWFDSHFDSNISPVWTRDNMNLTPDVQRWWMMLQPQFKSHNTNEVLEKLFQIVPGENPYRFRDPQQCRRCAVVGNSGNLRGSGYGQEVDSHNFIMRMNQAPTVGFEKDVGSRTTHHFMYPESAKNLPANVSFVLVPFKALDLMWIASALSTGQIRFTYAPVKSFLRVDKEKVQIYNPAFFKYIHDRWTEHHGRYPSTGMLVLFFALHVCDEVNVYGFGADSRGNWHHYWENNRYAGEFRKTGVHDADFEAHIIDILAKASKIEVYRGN
Nature of the assay: Reverse sialylation by ST3Gal-II in presence of citrate or 5′-nucleotides. Particulars: 0.2 mM [3], 7 mM 5′-CMP, 3.0 mM [5], 4 hours. As to the method:
FIG. 5. Effect of 5′-nucleotides on direct sialyltransferase activity (panel a) and reverse sialylation (panel b). a. Varying concentrations of 5′-CDP or 5′-CMP were added to 100 mM acceptor (specified below), 0.15 mM CMP-[9-^3H]NeuAc and either ST3Gal-II (0.2 mU), ST3Gal-III (0.5 mU) or ST6Gal-I (0.2 mU) for 4 h at 37° C. Products were separated using Sep-Pak C18 method. ST3Gal-III activity was measured using acceptor 4-O-MeGalβ1,4GlcNAcβ-O-Bn in the presence of 5′-CDP (●) and 5′-CMP (◯). ST6Gal-I activity was measured using Gal β1,4GlcNAcβ-O-Bn in the presence of 5′-CDP (▴) and 5′-CMP (Δ). ST3Gal-II using D-Fucβ1,3GalNAcα-O-Bn in the presence of 5′-CDP (▪) and 5′-CMP (□). b) Reverse sialylation by ST3Gal-II was measured in reaction mixtures containing 0.2 mM [9-^3H] [3], 7 mM 5′-CMP, ST3Gal-II (2 mU), D-Fucβ1,3GalNAcα-OBn (3.0 mM) and varying doses of either 5′-CDP (▴), 5′-UMP (◯) or 2-deoxy 5′-CMP (●) for 4 hours at 37° C. Reaction product ([9-^3H]NeuAcα2,3DFucβ1,3 GalNAcα-O-Bn) was isolated using Sep-Pak C18 method. In some runs, where was absent, the amount of CMP-NeuAc produced was quantified using the Dowex-1 Formate method in the presence of varying doses of 5′-CDP (▪).
Besides pH other distinctions were also observed between forward and reverse sialylation. In this regard, citrate ions tended to inhibit forward sialylation but not reverse sialylation activity (Table V). For these studies, the effect of citrate on the forward sialylation activity of ST3Gal-I, ST3Gal-II, ST3Gal-III and ST6Gal-I was examined. Reverse sialylation activity of ST3Gal-II was also measured in terms of: i) the formation of CMP-NeuAc from 5′-CMP; and ii) the transfer of NeuAc from this newly synthesized CMP-NeuAc to another O-glycan. From the data (Table V), it is evident that citrate inhibits the direct sialylation activity of all the enzymes mentioned above. However, both the synthesis of CMP-[9-^3H]NeuAc from 5′-CMP as well as the synthesis of [9-^3H]NeuAcα2,3D-Fucβ1,3 GalNAcα-O-Bn using the newly formed CMP-[9-^3H]NeuAc through reverse sialylation of ST3Gal-II was not inhibited by citrate.
The effect of 5′-nucleotides on forward sialylation (FIG. 5a) and reverse sialylation (FIG. 5b) were examined. […] The overall formation of [9-^3H]NeuAcα2,3D-Fucβ1,3 GalNAcα-O-Bn by the two-step reverse sialylation process, however, was inhibited by 5′-CDP and this is consistent with the finding that 5′-CDP inhibits forward sialylation in the second step.

In assay [2] the target is T1, ST3Gal-II. The assay can be described thus: Reverse sialylation: transfer of [9-3H]NeuAc from sialylated donor to nucleotide phosphates (WGA-agarose). The note with it: nucleotide phosphate 1 mM as acceptor, donor [1]. How it is done: FIG. 1. Nucleotide phosphates as acceptors of radioactivity from [9-^3H]NeuAcα2,3Galβ,13 (GlcNAcβ1,6)GalNAcα-O—Al (Al=Allyl) [[9-^3H] [1]] in the presence of ST3Gal-II (scheme-I). Reaction mixtures (RM) with the following composition were incubated at 37° C. for 21 hours in 100 mM NaCa Codylate buffer, pH6.0: i) RM containing 150 μM (0.4 μCi) [[9-^3H] [1]] (donor) along with 0.8 mU ST3Gal-II but no 5″-CMP; and, ii) RM containing [[9-^3H] [1]] and 1.0 mM 5′-CMP, along with ST3Gal-II. Products formed were fractionated on a WGA-agarose column. […] The feasibility of the reverse reaction is well established in literature. Schematic symbols: ♦:sialic acid, ●:Gal, □:GalNAc, ▪:GlcNAc.
All enzymatic sialylation reactions were typically carried out in 100 mM NaCa Codylate buffer pH6.0 in the presence of enzyme, synthetic acceptor (at 7.5 mM or as indicated in each experiment) and 0.2 μCi CMP-[9-^3H]NeuAc (NEN-Dupont, 29 mCi/μmol). The concentration of total CMP-NeuAc was adjusted in individual reactions by supplementing with additional cold CMP-NeuAc. Reaction volume was 20 μl. Products formed were separated using four different chromatography procedures (below). In all cases, the radioactive content of isolated products was determined by using 3a70 scintillation cocktail (Research Products International, Mount Prospect, Ill.), and a Beckman LS6500 scintillation counter.
(§1) a) Biogel P2 chromatography: A Biogel P2 column (Fine Mesh; 1.0×116.0 cm) was used with 0.1 M pyridine acetate (pH5.4) as the eluent at room temperature. […] Fractions of 1.0 ml were collected. The bound material was then eluted with 0.5M GlcNAc or 0.2M Gal in the same buffer. […] Calculation of equilibrium constant, Keq: Equilibrium constant was calculated for selected reversible bimolecular reactions that are denoted by:
Cloned and purified rat sialyltransferase α2,3(O)ST (ST3Gal-II) is used in many experiments presented in this manuscript. […] In order to determine if the sialylation reaction is reversible (FIG. 1), [9-^3H]NeuAcα2,3Galβ,13(GlcNAcβ1,6)GalNAcα-O—Al (Al=Allyl) [9-^3H[1]] was prepared using ST3Gal-II in the presence of CMP-[9-^3H]NeuAc and the trisaccharide acceptor Galβ1,3(GlcNAcβ1,6)GalNAcα-O—Al, and the radiolabeled product was isolated using Biogel P2 chromatography. […] Two different reaction mixtures were then prepared with: i) [9-^3H[1]] and ST3Gal-II but without 5″-CMP; and ii) [9-^3H[1]] and 5″-CMP along with ST3Gal-II.

Assay [3] addresses T1, ST3Gal-II. Nature of the assay: Reverse sialylation equilibrium constant (Keq) and 5′-CMP dose dependence. The note with it: acceptor 5′-CMP. As to the method:
FIG. 2. Equilibrium constant. a. Reversible sialyltransferase activity at increasing concentration of 5′-CMP. 0.15 mM of donor [9-^3H]NeuAcα2,3Galβ1,3(4-FGlcNAcβ1,6)GalNAcα-O-Bn [9-^3H[2]] was incubated with varying concentrations of 5′-CMP and 0.15 mU ST3Gal-II under conditions described in FIG. 1 for 2 hours. The consumption of the [9-^3H]NeuAc benzyl glycoside donor was measured by subjecting the incubation mixture to Sep-Pak C18 fractionation, which binds the donor and not CMP-[9-^3H]NeuAc. The reaction proceeded to ½ the maximum extent at 80 μM 5′-CMP. b. Equilibrium constant Keq (=0.35) calculated for data in panel a. c. Varying concentrations of 5′-CMP was sialylated with ST3Gal-II (2.0 mU) using either 0.15 mM (panel c) or 1.5 mM (not shown) sialyl donor [9-^3H]NeuAcα2,3Galβ1,3GalNAcβ1,3Galα-O-Me [9-^3H[3]] for 4 hours. The product CMP-[9-^3H]NeuAc and the unused [9-^3H[3]] were separated and quantitated by Dowex-1-Formate method. d. Equilibrium constant, Keq=98.9. Diamonds denote data from 1.5 mM runs while data from 0.15 mM runs are depicted by squares.
as §1
[formula] Here, [9-^3H]D* denotes the radiolabeled donor and D′ is the donor after removal of sialic acid. Similarly, A and [9-^3H]A* denote the acceptor before and after incorporation of NeuAc. In each run, unreacted [9-^3H]D* and product [9-^3H] A* are measured using radioactivity measurements. The equilibrium constant (Keq=kreverse/kforward, dimensionless units) are then determined using the following equation, where terms in square brackets denote concentrations:
[formula] [D0] and [A0] are initial donor and acceptor concentrations. A plot of [D*]/([D0]−[D*]) versus [A*]/([A0]−[A*]) yields Keq from slope data. Keq<1 implies that the forward reaction is favored and the reaction proceeds to the right side to form [9-^3H]A* efficiently. Liquid Chromatography Coupled with Tandem Mass Spectrometry (LC/MS/MS)
Similar results were observed upon increasing concentrations of 5′-CMP when [9-^3H]NeuAcα2,3Galβ1,3(4-FGlcNAcβ1,6) GalNAcα-O-Bn [9-^3H[2]] was donor (FIG. 2a, b). The concentration of 5′-CMP that mediated half-maximal transfer of [9-^3H]NeuAc was 80 μM. The bimolecular equilibrium constant (Keq) for this reaction was 0.35 (dimensionless units, Table I). Indeed, the Keq varied depending on the donor and it was 98.9 when the donor was based on the globo glycolipid, [9-^3H]NeuAcα2,3Galβ1,3GalNAcβ1,3 Gala-O-Me [[9-^3H] [3]] (FIG. 2c, d). Upon comparing and [3], it is apparent that reverse sialylation proceeds more effectively in the case of [2]. To further confirm the above estimates of Keq for core-2 based structures, we also calculated this parameter for our previously published data where [9-^3H]CMP-NeuAc was donor and mucin core-2 tetrasaccharide Galβ1,4GlcNAcβ1,6(Galβ1,3)GalNAcα-O-Bn was acceptor. In this case, Keq measured with respect to the rate of mucin core-2 sialylation was 5.55 (data not shown), which translates to a reverse sialylation Keq of 0.18.

On to `Nc1ccn([C@H]2C[C@H](O)[C@@H](COP(=O)(O)O)O2)c(=O)n1` [2′ deoxy 5′-CMP], for which the “Effect on overall formation of [9-3H]NeuAcα2,3D-Fucβ1,3GalNAcα-O-Bn by two-step reverse sialylation” value at ST3Gal-II [1] is recorded as “did not alter the extent of product formation”. The “Incorporation of [9-3H]NeuAc expressed as percent of the CPM incorporated into 5′-CMP” value on ST3Gal-II [2] worked out at 26.3%.

With `O=c1ccn([C@@H]2O[C@H](COP(=O)(O)O)[C@@H](O)[C@H]2O)c(=O)[nH]1` [5′-UMP], the “Effect on overall formation of [9-3H]NeuAcα2,3D-Fucβ1,3GalNAcα-O-Bn by two-step reverse sialylation” value at ST3Gal-II [1] was “did not alter the extent of product formation”. In addition, the “Incorporation of [9-3H]NeuAc expressed as percent of the CPM incorporated into 5′-CMP” value on ST3Gal-II [2] came out at 55.9%.

For “[9-^3H]NeuAcα2,3Gal(1,3(Gal(1,4GlcNAc(1,6)GalNAc(-O-Bn”, the “Keq (dimensionless units), reverse sialylation equilibrium constant” value on ST3Gal-II [3] (translated from Keq 5.55 of mucin core-2 sialylation, previously published data) amounted to 0.18.

As for “[9-^3H]NeuAcα2,3Galβ1,3GalNAcβ1,3Galα-O-Me [[3]]”, the “Keq (dimensionless units), reverse sialylation equilibrium constant” value on ST3Gal-II [3] (sialylated donor) was determined as 98.9.
